ChEMBL document CHEMBL4680217, “Discovery of PROTAC BCL-X degraders as potent anticancer agents with low on-target platelet toxicity” (Eur J Med Chem, 2020)
Active and inactive are the calls of the source. No cut-off for these calls is given here.

Tests used:
MOLT-4 = test: Antiproliferative activity against human MOLT-4 cells assessed as reduction in cell viability measured after 48 hrs by MTS assay; format: functional, cell-based; details: MOLT-4, 48 h
[1] = target: von Hippel-Lindau disease tumor suppressor/Bcl-2-like protein 1 (Homo sapiens, UniProt Q07817+P40337); test: Protac activity at VHL/BCL-XL in human MOLT-4 cells assessed as induction of BCL-XL degradation by measuring remaining BCL-XL level at 100 nM measured after 16 hrs by immunoblotting analysis relative to control; format: cell-based
[2] = target: von Hippel-Lindau disease tumor suppressor/Apoptosis regulator Bcl-2 (Homo sapiens) (UniProt P10415+P40337); test: Protac activity at VHL/BCL2 in human MOLT-4 cells assessed as induction of BCL2 degradation at 100 nM measured after 16 hrs by immunoblotting analysis; format: cell-based
[3] = Toxicity in human platelet assessed as reduction in cell viability measured after 48 hrs by MTS assay; format: tissue-based; details: human platelets
[4] = target: Protein cereblon/Apoptosis regulator Bcl-2 (Homo sapiens) (UniProt P10415+Q96SW2); test: Protac activity at CRBN/BCL2 in human MOLT-4 cells assessed as induction of BCL2 degradation at 50 nM measured after 16 hrs by immunoblotting analysis; format: cell-based
[5] = target: T1, Protein cereblon/Bcl-2-like protein 1 (Homo sapiens, UniProt Q07817+Q96SW2); test: Protac activity at CRBN/BCL-XL in human MOLT-4 cells assessed as induction of BCL-XL degradation measured after 16 hrs by immunoblotting analysis; format: cell-based
Target sequence in this assay (Q07817 whole entry): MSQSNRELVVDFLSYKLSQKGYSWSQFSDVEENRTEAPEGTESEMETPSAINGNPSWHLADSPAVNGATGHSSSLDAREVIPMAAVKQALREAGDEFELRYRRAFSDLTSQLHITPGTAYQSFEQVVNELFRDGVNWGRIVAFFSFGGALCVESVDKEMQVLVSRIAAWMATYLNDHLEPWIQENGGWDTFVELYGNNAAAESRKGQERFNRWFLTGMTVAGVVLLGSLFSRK
Target sequence in this assay (Q96SW2 whole entry): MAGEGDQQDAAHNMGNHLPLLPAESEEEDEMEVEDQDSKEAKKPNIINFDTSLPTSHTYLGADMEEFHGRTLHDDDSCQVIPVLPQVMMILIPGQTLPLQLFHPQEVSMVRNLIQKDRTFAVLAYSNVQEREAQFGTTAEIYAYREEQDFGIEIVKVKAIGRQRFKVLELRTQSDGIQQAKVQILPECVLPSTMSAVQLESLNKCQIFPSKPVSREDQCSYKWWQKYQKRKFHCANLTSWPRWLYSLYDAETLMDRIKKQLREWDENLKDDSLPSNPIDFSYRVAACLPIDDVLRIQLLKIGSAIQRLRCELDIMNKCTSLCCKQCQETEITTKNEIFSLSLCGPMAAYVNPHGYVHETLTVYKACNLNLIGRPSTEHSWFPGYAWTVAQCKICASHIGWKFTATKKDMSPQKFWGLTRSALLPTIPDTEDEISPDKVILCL

[6] = Selectivity index, ratio of IC50 for human platelet to IC50 for human MOLT-4 cells
[7] = target: T1, Protein cereblon/Bcl-2-like protein 1; test: Protac activity at CRBN/BCL-XL in human MOLT-4 cells assessed as induction of BCL-XL degradation by measuring remaining BCL-XL level at 50 nM measured after 16 hrs by immunoblotting analysis relative to control; format: cell-based
Target sequence in this assay (Q07817 whole entry, looked up): as the sequence (Q07817 whole entry) above
Target sequence in this assay (Q96SW2 whole entry, looked up): as the sequence (Q96SW2 whole entry) above

RS4-11 = test: Antiproliferative activity against human RS4-11 cells assessed as reduction in cell viability measured after 48 hrs by MTS assay; format: functional, cell-based; details: RS4-11, 48 h
NCI-H146 = test: Antiproliferative activity against human NCI-H146 cells assessed as reduction in cell viability measured after 48 hrs by MTS assay; format: functional, cell-based; details: NCI-H146, 48 h

von Hippel-Lindau disease tumor suppressor/Apoptosis regulator Bcl-2 (Homo sapiens), sequence (P10415 whole entry, looked up): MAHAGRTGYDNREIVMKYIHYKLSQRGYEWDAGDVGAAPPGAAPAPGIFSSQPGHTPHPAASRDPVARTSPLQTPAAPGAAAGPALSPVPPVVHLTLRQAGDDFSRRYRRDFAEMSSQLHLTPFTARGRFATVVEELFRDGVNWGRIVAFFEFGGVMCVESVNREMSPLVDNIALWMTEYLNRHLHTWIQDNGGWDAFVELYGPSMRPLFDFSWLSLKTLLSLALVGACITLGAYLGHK
von Hippel-Lindau disease tumor suppressor/Apoptosis regulator Bcl-2 (Homo sapiens), sequence (P40337 whole entry, looked up): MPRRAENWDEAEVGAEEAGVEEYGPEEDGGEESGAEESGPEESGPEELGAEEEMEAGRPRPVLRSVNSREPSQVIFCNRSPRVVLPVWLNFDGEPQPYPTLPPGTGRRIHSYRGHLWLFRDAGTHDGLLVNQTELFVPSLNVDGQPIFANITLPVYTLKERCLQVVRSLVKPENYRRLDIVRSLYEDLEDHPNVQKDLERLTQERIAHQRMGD
von Hippel-Lindau disease tumor suppressor/Bcl-2-like protein 1, sequence (P40337 whole entry, looked up): as above
von Hippel-Lindau disease tumor suppressor/Bcl-2-like protein 1, sequence (Q07817 whole entry, looked up): as the sequence (Q07817 whole entry) above
Protein cereblon/Apoptosis regulator Bcl-2 (Homo sapiens), sequence (P10415 whole entry, looked up): as the sequence (P10415 whole entry, looked up) above
Protein cereblon/Apoptosis regulator Bcl-2 (Homo sapiens), sequence (Q96SW2 whole entry, looked up): as the sequence (Q96SW2 whole entry) above

Row | SMILES | IC50 (MOLT-4) [nM] | Activity [1] [%] | Activity [2] | further results
1 | Cc1ncsc1-c1ccc([C@H](C)NC(=O)[C@@H]2C[C@@H](O)CN2C(=O)[C@@H](NC(=O)CCCCCCCN2CCN(CC[C@H](CSc3ccccc3)Nc3ccc(S(=O)(=O)NC(=O)c4ccc(N5CCN(CC6=C(c7ccc(Cl)cc7)CCC(C)(C)C6)CC5)cc4)cc3S(=O)(=O)C(F)(F)F)CC2)C(C)(C)C)cc1 | 181 | 78 | inactive | –
2 | CN(CCCNc1cccc2c1C(=O)N([C@@H]1CCC(=O)NC1=O)C2=O)CC[C@H](CSc1ccccc1)Nc1ccc(S(=O)(=O)NC(=O)c2ccc(N3CCN(CC4=C(c5ccc(Cl)cc5)CCC(C)(C)C4)CC3)cc2)cc1S(=O)(=O)C(F)(F)F | 32.5 | – | – | IC50 at 48 h [3]: 3.3 µM; Activity [4]: inactive; DC50 [5]: 10.6 nM; Ratio IC50 [6]: 101; Activity [7]: 31%; IC50 (RS4-11): 129 nM; IC50 (NCI-H146): 70.2 nM
3 | Cc1ncsc1-c1ccc([C@H](C)NC(=O)[C@@H]2C[C@@H](O)CN2C(=O)[C@@H](NC(=O)COCCOCCN(C)CC[C@H](CSc2ccccc2)Nc2ccc(S(=O)(=O)NC(=O)c3ccc(N4CCN(CC5=C(c6ccc(Cl)cc6)CCC(C)(C)C5)CC4)cc3)cc2S(=O)(=O)C(F)(F)F)C(C)(C)C)cc1 | 97 | 24 | inactive | –
4 | Cc1ncsc1-c1ccc([C@H](C)NC(=O)[C@@H]2C[C@@H](O)CN2C(=O)[C@@H](NC(=O)COCCOCCOCCOCCN(C)CC[C@H](CSc2ccccc2)Nc2ccc(S(=O)(=O)NC(=O)c3ccc(N4CCN(CC5=C(c6ccc(Cl)cc6)CCC(C)(C)C5)CC4)cc3)cc2S(=O)(=O)C(F)(F)F)C(C)(C)C)cc1 | 206 | 33 | inactive | –
5 | Cc1ncsc1-c1ccc([C@H](C)NC(=O)[C@@H]2C[C@@H](O)CN2C(=O)[C@@H](NC(=O)CCCCCCN2CCN(CC[C@H](CSc3ccccc3)Nc3ccc(S(=O)(=O)NC(=O)c4ccc(N5CCN(CC6=C(c7ccc(Cl)cc7)CCC(C)(C)C6)CC5)cc4)cc3S(=O)(=O)C(F)(F)F)CC2)C(C)(C)C)cc1 | 94.5 | 62 | inactive | –
6 | Cc1ncsc1-c1ccc([C@H](C)NC(=O)[C@@H]2C[C@@H](O)CN2C(=O)[C@@H](NC(=O)COCCOCC(=O)N2CCN(CC[C@H](CSc3ccccc3)Nc3ccc(S(=O)(=O)NC(=O)c4ccc(N5CCN(CC6=C(c7ccc(Cl)cc7)CCC(C)(C)C6)CC5)cc4)cc3S(=O)(=O)C(F)(F)F)CC2)C(C)(C)C)cc1 | 512 | 79 | inactive | –
7 | Cc1ncsc1-c1ccc([C@H](C)NC(=O)[C@@H]2C[C@@H](O)CN2C(=O)[C@@H](NC(=O)CCCCCCCCCN(C)CC[C@H](CSc2ccccc2)Nc2ccc(S(=O)(=O)NC(=O)c3ccc(N4CCN(CC5=C(c6ccc(Cl)cc6)CCC(C)(C)C5)CC4)cc3)cc2S(=O)(=O)C(F)(F)F)C(C)(C)C)cc1 | 1060 | 62 | inactive | –
8 | Cc1ncsc1-c1ccc([C@H](C)NC(=O)[C@@H]2C[C@@H](O)CN2C(=O)[C@@H](NC(=O)CCCCC(=O)N2CCN(CC[C@H](CSc3ccccc3)Nc3ccc(S(=O)(=O)NC(=O)c4ccc(N5CCN(CC6=C(c7ccc(Cl)cc7)CCC(C)(C)C6)CC5)cc4)cc3S(=O)(=O)C(F)(F)F)CC2)C(C)(C)C)cc1 | 467 | 52 | inactive | –
9 | Cc1ncsc1-c1ccc([C@H](C)NC(=O)[C@@H]2C[C@@H](O)CN2C(=O)[C@@H](NC(=O)CCOCCN2CCN(CC[C@H](CSc3ccccc3)Nc3ccc(S(=O)(=O)NC(=O)c4ccc(N5CCN(CC6=C(c7ccc(Cl)cc7)CCC(C)(C)C6)CC5)cc4)cc3S(=O)(=O)C(F)(F)F)CC2)C(C)(C)C)cc1 | 151 | 72 | inactive | –
10 | Cc1ncsc1-c1ccc([C@H](C)NC(=O)[C@@H]2C[C@@H](O)CN2C(=O)[C@@H](NC(=O)CCCCCN(C)CC[C@H](CSc2ccccc2)Nc2ccc(S(=O)(=O)NC(=O)c3ccc(N4CCN(CC5=C(c6ccc(Cl)cc6)CCC(C)(C)C5)CC4)cc3)cc2S(=O)(=O)C(F)(F)F)C(C)(C)C)cc1 | 460 | 60 | inactive | –
11 | Cc1ncsc1-c1ccc([C@H](C)NC(=O)[C@@H]2C[C@@H](O)CN2C(=O)[C@@H](NC(=O)CCCCN(C)CC[C@H](CSc2ccccc2)Nc2ccc(S(=O)(=O)NC(=O)c3ccc(N4CCN(CC5=C(c6ccc(Cl)cc6)CCC(C)(C)C5)CC4)cc3)cc2S(=O)(=O)C(F)(F)F)C(C)(C)C)cc1 | 1240 | 75 | inactive | –
12 | O=C1CCC(N2C(=O)c3cccc(NCCOCCOCc4cn(CCCC(=O)N5CCN(CC#Cc6ccc(OCCCc7sc(N8CCc9cccc(C(=O)Nc%10nc%11ccccc%11s%10)c9C8)nc7C(=O)O)c(F)c6)CC5)nn4)c3C2=O)C(=O)N1 (configuration not stated) | – | – | – | DC50 [5]: 50 nM
13 | Cc1ncsc1-c1ccc([C@H](C)NC(=O)[C@@H]2C[C@@H](O)CN2C(=O)[C@@H](NC(=O)CCC(=O)N2CCN(CC[C@H](CSc3ccccc3)Nc3ccc(S(=O)(=O)NC(=O)c4ccc(N5CCN(CC6=C(c7ccc(Cl)cc7)CCC(C)(C)C6)CC5)cc4)cc3S(=O)(=O)C(F)(F)F)CC2)C(C)(C)C)cc1 | > 2000 | 92 | inactive | –
14 | Cc1ncsc1-c1ccc([C@H](C)NC(=O)[C@@H]2C[C@@H](O)CN2C(=O)[C@@H](NC(=O)CCCCN2CCN(CC[C@H](CSc3ccccc3)Nc3ccc(S(=O)(=O)NC(=O)c4ccc(N5CCN(CC6=C(c7ccc(Cl)cc7)CCC(C)(C)C6)CC5)cc4)cc3S(=O)(=O)C(F)(F)F)CC2)C(C)(C)C)cc1 | 130 | 61 | inactive | –
15 | Cc1ncsc1-c1ccc([C@H](C)NC(=O)[C@@H]2C[C@@H](O)CN2C(=O)[C@@H](NC(=O)CC(=O)N2CCN(CC[C@H](CSc3ccccc3)Nc3ccc(S(=O)(=O)NC(=O)c4ccc(N5CCN(CC6=C(c7ccc(Cl)cc7)CCC(C)(C)C6)CC5)cc4)cc3S(=O)(=O)C(F)(F)F)CC2)C(C)(C)C)cc1 | > 2000 | 96 | inactive | –
16 | Cc1ncsc1-c1ccc([C@H](C)NC(=O)[C@@H]2C[C@@H](O)CN2C(=O)[C@@H](NC(=O)CCCC(=O)N2CCN(CC[C@H](CSc3ccccc3)Nc3ccc(S(=O)(=O)NC(=O)c4ccc(N5CCN(CC6=C(c7ccc(Cl)cc7)CCC(C)(C)C6)CC5)cc4)cc3S(=O)(=O)C(F)(F)F)CC2)C(C)(C)C)cc1 | > 2000 | 82 | inactive | –
17 | Cc1ncsc1-c1ccc([C@H](C)NC(=O)[C@@H]2C[C@@H](O)CN2C(=O)[C@@H](NC(=O)CCOCCOCCN2CCN(CC[C@H](CSc3ccccc3)Nc3ccc(S(=O)(=O)NC(=O)c4ccc(N5CCN(CC6=C(c7ccc(Cl)cc7)CCC(C)(C)C6)CC5)cc4)cc3S(=O)(=O)C(F)(F)F)CC2)C(C)(C)C)cc1 | 914 | 55 | inactive | –
18 | Cc1ncsc1-c1ccc([C@H](C)NC(=O)[C@@H]2C[C@@H](O)CN2C(=O)[C@@H](NC(=O)CCOCCC(=O)N2CCN(CC[C@H](CSc3ccccc3)Nc3ccc(S(=O)(=O)NC(=O)c4ccc(N5CCN(CC6=C(c7ccc(Cl)cc7)CCC(C)(C)C6)CC5)cc4)cc3S(=O)(=O)C(F)(F)F)CC2)C(C)(C)C)cc1 | 324 | 62 | inactive | –
19 | Cc1ncsc1-c1ccc([C@H](C)NC(=O)[C@@H]2C[C@@H](O)CN2C(=O)[C@@H](NC(=O)COCCCOCC(=O)N2CCN(CC[C@H](CSc3ccccc3)Nc3ccc(S(=O)(=O)NC(=O)c4ccc(N5CCN(CC6=C(c7ccc(Cl)cc7)CCC(C)(C)C6)CC5)cc4)cc3S(=O)(=O)C(F)(F)F)CC2)C(C)(C)C)cc1 | 232 | 48 | inactive | –
20 | Cc1ncsc1-c1ccc([C@H](C)NC(=O)[C@@H]2C[C@@H](O)CN2C(=O)[C@@H](NC(=O)CCCCCCCCN(C)CC[C@H](CSc2ccccc2)Nc2ccc(S(=O)(=O)NC(=O)c3ccc(N4CCN(CC5=C(c6ccc(Cl)cc6)CCC(C)(C)C5)CC4)cc3)cc2S(=O)(=O)C(F)(F)F)C(C)(C)C)cc1 | 139 | 49 | inactive | –
21 | Cc1ncsc1-c1ccc([C@H](C)NC(=O)[C@@H]2C[C@@H](O)CN2C(=O)[C@@H](NC(=O)COCCOCCOCCN(C)CC[C@H](CSc2ccccc2)Nc2ccc(S(=O)(=O)NC(=O)c3ccc(N4CCN(CC5=C(c6ccc(Cl)cc6)CCC(C)(C)C5)CC4)cc3)cc2S(=O)(=O)C(F)(F)F)C(C)(C)C)cc1 | 200 | 33 | inactive | –
22 | Cc1ncsc1-c1ccc([C@H](C)NC(=O)[C@@H]2C[C@@H](O)CN2C(=O)[C@@H](NC(=O)CCCCCC(=O)N(C)CC[C@H](CSc2ccccc2)Nc2ccc(S(=O)(=O)NC(=O)c3ccc(N4CCN(CC5=C(c6ccc(Cl)cc6)CCC(C)(C)C5)CC4)cc3)cc2S(=O)(=O)C(F)(F)F)C(C)(C)C)cc1 | > 2000 | 78 | inactive | –
23 | Cc1ncsc1-c1ccc([C@H](C)NC(=O)[C@@H]2C[C@@H](O)CN2C(=O)[C@@H](NC(=O)CCCCCCCN(C)CC[C@H](CSc2ccccc2)Nc2ccc(S(=O)(=O)NC(=O)c3ccc(N4CCN(CC5=C(c6ccc(Cl)cc6)CCC(C)(C)C5)CC4)cc3)cc2S(=O)(=O)C(F)(F)F)C(C)(C)C)cc1 | 147 | 45 | inactive | –
